In article PMC8041284, “Tunable Methacrylamides for Covalent Ligand Directed Release Chemistry” (Journal of the American Chemical Society, 2021) one finds inhibition data, which are given here for 50 compounds.

The first test deals with BTK (Homo sapiens, UniProt Q06187). The test can be described thus: biochemical. The settings on record: read-out: BTK inhibition (%).
Chain of BTK (Q06187 402-655 limits assumed): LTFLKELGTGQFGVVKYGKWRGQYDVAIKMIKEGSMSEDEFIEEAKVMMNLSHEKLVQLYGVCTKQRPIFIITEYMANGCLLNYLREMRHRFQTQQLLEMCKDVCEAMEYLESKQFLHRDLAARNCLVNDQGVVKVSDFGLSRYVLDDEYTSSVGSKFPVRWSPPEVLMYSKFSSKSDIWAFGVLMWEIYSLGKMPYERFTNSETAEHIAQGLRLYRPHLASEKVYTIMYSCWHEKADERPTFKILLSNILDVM
By inhibition is commonly meant the relative decrease from the control value, in per cent. Turning to `NC(=O)CN1CC(c2ccccc2)CC1=O` (centres unmarked) [PCM-0216067], the inhibition at 10 µM was found to be 10%.

With `CC1(C)CC(O)CC(C)(C)N1[O]` [PCM-0095391], the inhibition at 10 µM worked out at 10.3%.

Staying with this test, now noted: read-out: BTK inhibition (%), 0.75 uM BTK, […] probe 3l, 15 min preincubation.
Regarding `C=C(C)[C@@H]1CC[C@]2(C=O)CC[C@]3(C)[C@H](CC[C@@H]4[C@@]5(C)CC[C@H](O)C(C)(C)[C@@H]5CC[C@]43C)[C@@H]12` [PCM-0216430], the inhibition at 10 µM amounted to 19.3%.

`NC(=NCCCCCCN=C(N)/N=C(\N)Nc1ccc(Cl)cc1)/N=C(\N)Nc1ccc(Cl)cc1` [PCM-0085888]: the inhibition at 10 µM is 3.1%.

On to `CCCCCCCCCCCCCCCCOc1nc2ccc(C)cc2c(=O)o1` [PCM-0215987], for which the inhibition at 10 µM was -28.9%.

With `COC(=O)c1ccc2c(C(=Nc3ccc(N(C)C(=O)CN4CCN(C)CC4)cc3)c3ccccc3)c(O)[nH]c2c1` [PCM-0094897], the inhibition at 10 µM worked out at 22.1%.

On to `O=C(NC1CC1)c1cc(-c2cccs2)on1` [PCM-0215520], for which the inhibition at 10 µM was -2.3%.

`CC(=O)OC(CC(=O)O)C[N+](C)(C)C` (centres unmarked) [PCM-0216588]: the inhibition at 10 µM is -18.5%.

As for `CCC(C(=O)O)c1ccc(N2Cc3ccccc3C2=O)cc1` (centres unmarked) [PCM-0215153], the inhibition at 10 µM is -18.5%.

`CC1=C(CC(=O)O)c2cc(F)ccc2/C1=C\c1ccc([S+](C)[O-])cc1` (centres unmarked) [PCM-0065451]: the inhibition at 10 µM was 8.3%.

With `CCn1nc(C2CCN(C(=O)CCO)CC2)nc1-c1cnc(N)c(-c2nnc(C(C)(C)C)o2)n1` [PCM-0215697], the inhibition at 10 µM was 9.7%.

On to `CCS(=O)(=O)N1CCN(c2ccc(Nc3ncc(C(N)=O)c(NC4CC4)n3)cc2)CC1` [PCM-0215389], for which the inhibition at 10 µM is 85.5%.

Regarding `Nc1ccc(-c2ccc3ncc4ccc(=O)n(-c5cccc(C(F)(F)F)c5)c4c3c2)cn1` [PCM-0095430], the inhibition at 10 µM came to 9.7%.

In the case of `COc1cc2c(cc1OC)-c1c(C)c3ccc(OC)c(OC)c3c[n+]1CC2` [PCM-0216326], the inhibition at 10 µM was determined as 0%.

As to `CO/N=C(\C(=O)N[C@@H]1C(=O)N2C(C(=O)O)=C(Cn3ccc(=N)n3CCO)CS[C@H]12)c1csc(N)n1` [PCM-0215184], the inhibition at 10 µM was 9.4%.

In the case of `CC(O)(CS(=O)(=O)c1ccc(F)cc1)C(=O)Nc1ccc(C#N)c(C(F)(F)F)c1` (centres unmarked) [PCM-0065600], the inhibition at 10 µM was determined as 11.7%.

In the case of `CC1=C(C(=O)OC2CCCCC2)C(c2ccc([N+](=O)[O-])cc2)C2=C(CC(C)(C)CC2=O)N1` (centres unmarked) [PCM-0095815], the inhibition at 10 µM is 46.3%.

With `COc1ccc(-n2c(SCCCN3C(=O)c4cccc5cccc(c45)C3=O)nnc2-c2ccncc2)cc1` [PCM-0215315], the inhibition at 10 µM was -9.3%.

Take `CCCCN1CCCCC1C(=O)Nc1c(C)cccc1C` (centres unmarked) [PCM-0085904]: the inhibition at 10 µM was -9.3%.

For `c1coc(CNc2ncnc3nc[nH]c23)c1` [PCM-0000462], the inhibition at 10 µM came out at 10.9%.

Turning to `O=C(c1ccc(Cl)cc1)N(Cc1ccccc1)C1CCCCC1` [PCM-0215646], the inhibition at 10 µM was found to be 20.1%.

For `COc1cc(CCc2cc(NC(=O)c3ccc(N4C[C@@H](C)N[C@@H](C)C4)cc3)n[nH]2)cc(OC)c1` [PCM-0095396], the inhibition at 10 µM was 58.6%.

`O=C(Nc1ccc2c(O)cc(S(=O)(=O)O)cc2c1)Nc1ccc2c(O)cc(S(=O)(=O)O)cc2c1` [PCM-0216169]: the inhibition at 10 µM was found to be 29.3%.

Consider `O=c1cc(CN2CCOCC2)occ1OCCCCCSc1ccnc2cc(C(F)(F)F)ccc12` [PCM-0095730], for which the inhibition at 10 µM was -34.7%.

Turning to `C[C@@H]1CC[C@@]2(OC1)O[C@H]1C[C@H]3[C@@H]4CC=C5C[C@@H](O[C@@H]6O[C@H](CO)[C@@H](O)[C@H](O)[C@H]6O[C@@H]6O[C@@H](C)[C@H](O)[C@@H](O)[C@H]6O)CC[C@]5(C)[C@H]4CC[C@]3(C)[C@@]1(O)[C@@H]2C` [PCM-0216535], the inhibition at 10 µM came to 5.4%.

For the compound `COc1cccc(-c2ccc(NC(=O)C3=C(C(=O)O)CCC3)c(F)c2)c1` [PCM-0215523], the inhibition at 10 µM was -75.9%.

Turning to `CC(C)(C)NC(=O)N[C@H](C(=O)N1C[C@H]2[C@@H]([C@H]1C(=O)NC(CC1CCC1)C(=O)C(N)=O)C2(C)C)C(C)(C)C` (some centres unmarked) [PCM-0214929], the inhibition at 10 µM amounted to 8.6%.

On to `Cc1cc([C@@H](C)Nc2ccccc2C(=O)O)c2nc(N3CCOCC3)cc(=O)n2c1` [PCM-0214725], for which the inhibition at 10 µM was -6.9%.

Regarding `Cc1cc(O)c(-c2ccc([C@@H](C)CN)cc2)c2c1[nH]c(=O)c1sccc12` [PCM-0215772], the inhibition at 10 µM was determined as 70.3%.

Consider `CC(O)(P(=O)(O)O)P(=O)(O)O` [PCM-0086550], for which the inhibition at 10 µM was -27.2%.

`C[C@H](NC(=O)[C@@H](O)c1cc(F)cc(F)c1)C(=O)N[C@@H]1C(=O)N(C)c2ccccc2-c2ccccc21` [PCM-0095417]: the inhibition at 10 µM came to 6.2%.

Take `CN(C)Cc1ccc(-c2nc3cccc4c3n2CCNC4=O)cc1` [PCM-0095220]: the inhibition at 10 µM was 4.8%.

With `Cc1sc2c(c1C)C(c1ccc(Cl)cc1)=N[C@@H](CC(N)=O)c1nnc(C)n1-2` [PCM-0215329], the inhibition at 10 µM was -14.7%.

Turning to `Nc1ncnc2c1ncn2C(C=O)OC(C=O)CO` (centres unmarked) [PCM-0215903], the inhibition at 10 µM is 0.8%.

Take `Cc1cccc(Nc2nc(N[C@@H]3CCCC[C@@H]3N)ncc2C(N)=O)c1` [PCM-0215814]: the inhibition at 10 µM is 82.8%.

Turning to `Cc1ccccc1N=Nc1ccc(NC(=O)c2ccnn2C)c(C)c1` [PCM-0215441], the inhibition at 10 µM is 6.9%.

Consider `CS(=O)(=O)Nc1ccc([N+](=O)[O-])cc1Oc1ccccc1` [PCM-0064916], for which the inhibition at 10 µM worked out at 3.4%.

For `Cc1[nH]c(/C=C2\C(=O)Nc3ccc(S(=O)(=O)N(C)c4cccc(Cl)c4)cc32)c(C)c1C(=O)N1CCN(C)CC1` [PCM-0095046], the inhibition at 10 µM amounted to 6.9%.

Turning to `CCCN(CCC)C(=O)C1=Cc2ccc(-c3ccc(C(=O)N4CCCC4)cc3)cc2N=C(N)C1` [PCM-0215564], the inhibition at 10 µM is -10.3%.

With `Cc1cc(C)nc(SCC(=O)Nc2ncc(Cc3cccc4ccccc34)s2)n1` [PCM-0215537], the inhibition at 10 µM is 2.3%.

As for `C[C@]12CC[C@H]3[C@@H](CC[C@@]45O[C@@H]4C(O)=C(C#N)C[C@]35C)[C@@H]1CC[C@@H]2O` [PCM-0214622], the inhibition at 10 µM is 13.2%.

Turning to `Cc1cc(O)cc(O)c1` [PCM-0216278], the inhibition at 10 µM is 3.1%.

`CN(C)C(=O)[C@H](O)[C@H](Cc1ccccc1)NC(=O)c1cc2cc(Cl)ccc2[nH]1` [PCM-0065218]: the inhibition at 10 µM came to 5.4%.

As to `CN(c1ccccc1CNc1nc(Nc2ccc3c(c2)CC(=O)N3)ncc1C(F)(F)F)S(C)(=O)=O` [PCM-0215410], the inhibition at 10 µM was found to be 91.7%.

For the compound `CN1CCN(c2nc3ccccc3nc2Cl)CC1` [PCM-0095510], the inhibition at 10 µM was -6.2%.

For `Nc1ccn([C@@H]2O[C@H](COP(=O)(O)O)[C@@H](O)[C@H]2O)c(=O)n1` [PCM-0216146], the inhibition at 10 µM is -0.9%.

Take `Nc1ccc(-c2cccc(C(=O)Nc3cnc4nc(N5CCOCC5)oc4c3)n2)cn1` [PCM-0215899]: the inhibition at 10 µM worked out at 2.1%.

With `NC(=O)C(c1ccccc1)(c1ccccc1)[C@@H]1CCN(CCc2ccc3c(c2)CCO3)C1` [PCM-0086175], the inhibition at 10 µM turned out to be 4.7%.

Turning to `Nc1nc(F)nc2c1ncn2[C@@H]1O[C@H](CO)[C@@H](O)[C@@H]1O` [PCM-0086227], the inhibition at 10 µM is -19.5%.

As to `Cn1cc(C[C@@H](N)C(=O)O)c2ccccc21` [PCM-0215432], the inhibition at 10 µM is -11.1%.
